According to patent US6762174B1 (priority 1998, dated 2004):
Where two headings read alike, the source gives them in different places.

Assays:
[1] = test system: MOPC-315 myeloma; assay: MOPC-315 Myeloma study #2: β-alethine ip day 10 (1 × 10^6 tumor cells); settings: for Mean Tumor Size: 3 mg BT alone
[2] = test system: MT-1 breast cancer xenograft

Structure (SMILES): NCCC(=O)NCCSSCCNC(=O)CCN [BT, β-alethine]
- Mean Tumor Size ([1]; day 10): 21.5 mm
- Mean Tumor Size ([1]; day 14): 24 mm
- Mean Tumor Size ([1]; day 17): 24 mm
- Mean Tumor Size ([1]; day 21): (dead)
- Animals Surviving ([1]; BT 3 ng/kg, day 10): 10
- Animals Surviving ([1]; BT 3 ng/kg, day 11): 10
- Animals Surviving ([1]; BT 3 ng/kg, day 12): 10
- Animals Surviving ([1]; BT 3 ng/kg, day 13): 10
- Animals Surviving ([1]; BT 3 ng/kg, day 14): 7
- Animals Surviving ([1]; BT 3 ng/kg, day 15): 5
- Animals Surviving ([1]; BT 3 ng/kg, day 16): 5
- Animals Surviving ([1]; BT 3 ng/kg, day 17): 4
- Animals Surviving ([1]; BT 3 ng/kg, day 18): 1
- Animals Surviving ([1]; BT 3 ng/kg, day 19): 1
- Animals Surviving ([1]; BT 3 ng/kg, day 20): 1
- Animals Surviving ([1]; BT 3 ng/kg, day 21): 0
- Animals Surviving ([1]; BT 100 μg/kg, day 10): 10
- Animals Surviving ([1]; BT 100 μg/kg, day 11): 9
- Animals Surviving ([1]; BT 100 μg/kg, day 12): 6
- Animals Surviving ([1]; BT 100 μg/kg, day 13): 5
- Animals Surviving ([1]; BT 100 μg/kg, day 14): 5
- Animals Surviving ([1]; BT 100 μg/kg, day 15): 5
- Animals Surviving ([1]; BT 100 μg/kg, day 16): 4
- Animals Surviving ([1]; BT 100 μg/kg, day 17): 4
- Animals Surviving ([1]; BT 100 μg/kg, day 18): 1
- Animals Surviving ([1]; BT 100 μg/kg, day 19): 1
- Animals Surviving ([1]; BT 100 μg/kg, day 20): 0
- Animals Surviving ([1]; BT 3 mg/kg, day 10): 10
- Animals Surviving ([1]; BT 3 mg/kg, day 11): 9
- Animals Surviving ([1]; BT 3 mg/kg, day 12): 6
- Animals Surviving ([1]; BT 3 mg/kg, day 13): 5
- Animals Surviving ([1]; BT 3 mg/kg, day 14): 5
- Animals Surviving ([1]; BT 3 mg/kg, day 15): 5
- Animals Surviving ([1]; BT 3 mg/kg, day 16): 4
- Animals Surviving ([1]; BT 3 mg/kg, day 17): 4
- Animals Surviving ([1]; BT 3 mg/kg, day 18): 1
- Animals Surviving ([1]; BT 3 mg/kg, day 19): 1
- Animals Surviving ([1]; BT 3 mg/kg, day 20): 0
- Animals Surviving ([1]; BT 30 fg/kg, day 10): 10
- Animals Surviving ([1]; BT 30 fg/kg, day 11): 10
- Animals Surviving ([1]; BT 30 fg/kg, day 12): 9
- Animals Surviving ([1]; BT 30 fg/kg, day 13): 7
- Animals Surviving ([1]; BT 30 fg/kg, day 14): 5
- Animals Surviving ([1]; BT 30 fg/kg, day 15): 5
- Animals Surviving ([1]; BT 30 fg/kg, day 16): 1
- Animals Surviving ([1]; BT 30 fg/kg, day 17): 1
- Animals Surviving ([1]; BT 30 fg/kg, day 18): 0
- Median Tumor Size ([2]; BT 30 ng/kg every 14 days, day 13): 0.080 cm^3
- Median Tumor Size ([2]; BT 30 ng/kg every 14 days, day 16): 0.104 cm^3
- Median Tumor Size ([2]; BT 30 ng/kg every 14 days, day 20): 0.176 cm^3
- Median Tumor Size ([2]; BT 30 ng/kg every 14 days, day 23): 0.202 cm^3
- Median Tumor Size ([2]; BT 30 ng/kg every 14 days, day 27): 0.250 cm^3
- Median Tumor Size ([2]; BT 30 ng/kg every 14 days, day 30): 0.294 cm^3
- Median Tumor Size ([2]; BT 30 ng/kg every 14 days, day 34): 0.298 cm^3
- Median Tumor Size ([2]; BT 30 ng/kg every 14 days, day 38): 0.426 cm^3
- Median Tumor Size ([2]; BT 30 ng/kg every 14 days, day 41): 0.429 cm^3
- Median Tumor Size ([2]; BT 30 ng/kg every 14 days, day 45): 0.419 cm^3
- RTV ([2]; BT 30 ng, day 13): 1
- RTV ([2]; BT 30 ng, day 16): 1.4
- RTV ([2]; BT 30 ng, day 20): 2.1
- RTV ([2]; BT 30 ng, day 23): 2.3
- RTV ([2]; BT 30 ng, day 27): 2.8
- RTV ([2]; BT 30 ng, day 30): 3.4
- RTV ([2]; BT 30 ng, day 34): 3.8
- RTV ([2]; BT 30 ng, day 38): 4.5
- RTV ([2]; BT 30 ng, day 41): 4.9
- RTV ([2]; BT 30 ng, day 45): 6.0
- Median Tumor Size ([2]; BT 30 ug/kg every 14 days, day 13): 0.055 cm^3
- Median Tumor Size ([2]; BT 30 ug/kg every 14 days, day 16): 0.095 cm^3
- Median Tumor Size ([2]; BT 30 ug/kg every 14 days, day 20): 0.180 cm^3
- Median Tumor Size ([2]; BT 30 ug/kg every 14 days, day 23): 0.193 cm^3
- Median Tumor Size ([2]; BT 30 ug/kg every 14 days, day 27): 0.325 cm^3
- Median Tumor Size ([2]; BT 30 ug/kg every 14 days, day 30): 0.408 cm^3
- Median Tumor Size ([2]; BT 30 ug/kg every 14 days, day 34): 0.410 cm^3
- Median Tumor Size ([2]; BT 30 ug/kg every 14 days, day 38): 0.607 cm^3
- Median Tumor Size ([2]; BT 30 ug/kg every 14 days, day 41): 0.696 cm^3
- Median Tumor Size ([2]; BT 30 ug/kg every 14 days, day 45): 0.743 cm^3
- RTV ([2]; BT 30 ug, day 13): 1
- RTV ([2]; BT 30 ug, day 16): 1.4
- RTV ([2]; BT 30 ug, day 20): 2.6
- RTV ([2]; BT 30 ug, day 23): 3.0
- RTV ([2]; BT 30 ug, day 27): 4.3
- RTV ([2]; BT 30 ug, day 30): 5.2
- RTV ([2]; BT 30 ug, day 34): 6.0
- RTV ([2]; BT 30 ug, day 38): 9.1
- RTV ([2]; BT 30 ug, day 41): 11.5
- RTV ([2]; BT 30 ug, day 45): 14.0
- Median Tumor Size ([2]; BT 30 fg/kg every 14 days, day 13): 0.104 cm^3
- Median Tumor Size ([2]; BT 30 fg/kg every 14 days, day 16): 0.128 cm^3
- Median Tumor Size ([2]; BT 30 fg/kg every 14 days, day 20): 0.213 cm^3
- Median Tumor Size ([2]; BT 30 fg/kg every 14 days, day 23): 0.253 cm^3
- Median Tumor Size ([2]; BT 30 fg/kg every 14 days, day 27): 0.442 cm^3
- Median Tumor Size ([2]; BT 30 fg/kg every 14 days, day 30): 0.637 cm^3
- Median Tumor Size ([2]; BT 30 fg/kg every 14 days, day 34): 1.062 cm^3
- Median Tumor Size ([2]; BT 30 fg/kg every 14 days, day 38): 1.241 cm^3
- Median Tumor Size ([2]; BT 30 fg/kg every 14 days, day 41): 1.464 cm^3
- Median Tumor Size ([2]; BT 30 fg/kg every 14 days, day 45): 1.911 cm^3
- RTV ([2]; BT 30 fg, day 13): 1
- RTV ([2]; BT 30 fg, day 16): 1.6
- RTV ([2]; BT 30 fg, day 20): 3.4
- RTV ([2]; BT 30 fg, day 23): 4.4
- RTV ([2]; BT 30 fg, day 27): 7.6
- RTV ([2]; BT 30 fg, day 30): 9.3
- RTV ([2]; BT 30 fg, day 34): 11.9
- RTV ([2]; BT 30 fg, day 38): 16.1
- RTV ([2]; BT 30 fg, day 41): 18.2
- RTV ([2]; BT 30 fg, day 45): 19.8
